Test results from ChEMBL document CHEMBL1201862, “PubChem BioAssay data set” (2004).
The source made the active and inactive calls.

Tests used:
Paired box protein Pax-8 = Paired box protein Pax-8 (Homo sapiens, UniProt Q06710); assay: PAX8 transcriptional activity inhibition in RMG-I – RMG-I cells, luciferase, cherry-pick, dose response (AID 687027); assay type: functional, cell-based;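 further: luciferase reporter driven by Pax8 target thyroperoxidase promoter measured by SteadyGlo luminescence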
Sequence of Paired box protein Pax-8 (Q06710 whole entry): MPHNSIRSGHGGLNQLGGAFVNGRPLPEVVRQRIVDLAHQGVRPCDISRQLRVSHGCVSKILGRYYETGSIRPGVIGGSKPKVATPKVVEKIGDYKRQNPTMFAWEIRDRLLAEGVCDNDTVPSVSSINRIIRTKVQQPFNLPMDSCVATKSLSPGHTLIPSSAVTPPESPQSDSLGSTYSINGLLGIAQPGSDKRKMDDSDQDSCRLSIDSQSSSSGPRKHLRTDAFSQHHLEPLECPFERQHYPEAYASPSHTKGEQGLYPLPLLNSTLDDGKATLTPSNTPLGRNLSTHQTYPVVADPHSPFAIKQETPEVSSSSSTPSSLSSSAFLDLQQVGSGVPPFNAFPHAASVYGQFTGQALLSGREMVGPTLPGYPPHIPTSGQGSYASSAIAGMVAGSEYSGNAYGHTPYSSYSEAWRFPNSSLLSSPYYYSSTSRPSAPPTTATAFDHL

[1] = inhibitors acting on PAX2 in cells – cell-based, plate reader, dry powder samples, selectivity assay for PAX8 inhibitor project, dose response (AID 743048); assay type: functional;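 further: HEK293 cells carrying a WT1 promoter luciferase reporter driven by expressed Pax2; potency is for inhibition of Pax2 driven reporter signal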
[2] = PAX5 cellular inhibition readout – cell-based, plate reader, dry powder samples, selectivity assay for PAX8 inhibitor project, dose response (AID 743047); assay type: functional;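 further: HEK293 cells carrying a Pax5 driven CD19 promoter luciferase reporter; potency of inhibitors that lower reporter luminescence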
[3] = COV434 cell viability loss – plate reader, dry powder, SA7, cytotoxicity control for PAX8 inhibitor project, dose response (AID 743145); assay type: functional, cell-based
[4] = growth inhibition of yeast DHODH-expressing 3D7 parasites – SYBR Green, dry powder samples, dose response (AID 1159570); assay type: functional, cell-based;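 further: parasite growth measured after 72 hours of compound exposure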
[5] = toxicity to human HepG2 hepatoma cells – cell-based, plate reader, dry powder samples, cytotoxicity control, dose response (AID 1159569); assay type: functional;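 further: inhibitor potency with signal falling toward the positive control level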
[6] = P. falciparum Dd2 growth inhibitors, dose response, SYBR Green, cherry-picked samples (AID 1159567); assay type: functional, cell-based
[7] = Dd2 malaria parasite growth inhibition potency – SYBR Green, dry powder samples, dose response (AID 1159566); assay type: functional, cell-based;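 further: potency for growth inhibition with lower SYBR green DNA signal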
[8] = toxicity to human hepatoma HepG2 cells – cell-based, cherry-picked samples, cytotoxicity control, dose response (AID 1159577); assay type: functional
[9] = growth inhibition of PfATP4-mutant resistant parasites – NITD609-resistant line, SYBR Green, dry powder, dose response (AID 1159571); assay type: functional, cell-based;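 further: parasites synchronized at ring stage by sorbitol before testing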
[10] = target: T1, Oxysterols receptor LXR-beta (Homo sapiens, UniProt P55055); assay type: functional, cell-based;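 further: Cell-based luminescence dose-response assay of agonist activity at LXR, run as a confirmatory counterscreen to a daf-12 agonist screen; HEK293 cells with Gal4-LXR fusion and GAL4-driven luciferase reporter; agonist potency from rising luciferase signal of a Gal4-LXR reporter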
T1 sequence (P55055 whole entry): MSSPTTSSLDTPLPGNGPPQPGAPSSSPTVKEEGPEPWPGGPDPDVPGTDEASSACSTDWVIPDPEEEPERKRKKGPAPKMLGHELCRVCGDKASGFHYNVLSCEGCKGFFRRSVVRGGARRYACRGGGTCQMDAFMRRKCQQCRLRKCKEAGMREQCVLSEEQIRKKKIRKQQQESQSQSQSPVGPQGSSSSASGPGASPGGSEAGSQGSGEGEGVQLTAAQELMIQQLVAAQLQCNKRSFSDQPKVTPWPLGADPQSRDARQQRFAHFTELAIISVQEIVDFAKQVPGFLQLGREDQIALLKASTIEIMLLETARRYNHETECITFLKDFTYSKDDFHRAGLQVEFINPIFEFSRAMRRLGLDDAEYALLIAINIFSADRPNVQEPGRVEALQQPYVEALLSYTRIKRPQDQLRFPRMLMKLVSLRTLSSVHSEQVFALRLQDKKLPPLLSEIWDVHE

cells [11] = assay: cells
[12] = HEK-293T viability loss after treatment – luminescence, T-cell screen hits, cytotoxicity control for TCR NF-kB inhibitor project, dose response (AID 489026); assay type: functional, cell-based;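 further: cells exposed to compound about 14 hours before the viability readout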
[13] = A549 cell cytotoxicity, dose response, cytotoxicity control, plate reader, cherry-pick, antagonist series (AID 743412); assay type: functional, cell-based
[14] = toxicity toward HepG2 liver cells – cell-based, plate reader, cherry-pick, antagonist series, cytotoxicity control, dose response (AID 743416); assay type: functional
[15] = blockers of bursicon-stimulated LGR2 cAMP reporter – cell-based, HEK293, CRE-luciferase reporter, cherry pick, set 2, dose response (AID 743343); assay type: functional;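 further: transfected cells were stimulated with diluted bursicon conditioned medium after compound addition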
[16] = general cell-killing toxicity readout – plate reader, dry powder samples, cytotoxicity control for PAX8 inhibitor project, dose response (AID 743021); assay type: functional, cell-based
[17] = blockade of melanocortin 4 receptor signaling – cell-based, plate reader, cherry pick, counter-screen for LGR2 antagonist project, dose response (AID 743444); assay type: functional;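 further: transfected HEK 293 cells stimulated with alpha-MSH peptide; potency of inhibitors of the alpha-MSH evoked signal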
[18] = viability loss in HEK293 cells – cell-based, plate reader, cherry-picked samples, cytotoxicity control, dose response (AID 743446); assay type: functional
[19] = blockers of HIV-1 envelope-mediated cell-cell fusion – cherry-pick, dose response (AID 652057); assay type: functional, cell-based
[20] = blockers of HIV-1 ZM109 envelope-driven cell-cell fusion – HeLa effector, CEM target cells, luciferase, cherry-pick, dose response (AID 652058); assay type: functional, cell-based;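 further: luciferase signal from HIV-1 Env mediated cell-cell fusion of effector and target cells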
[21] = inhibition of Env-driven cell fusion – HIV entry, plate reader, dry powder, dose response (AID 687023); assay type: functional, cell-based
[22] = target: RNA-editing ligase 1, mitochondrial (Trypanosoma brucei brucei, UniProt P86926); assay: inhibition of trypanosome RNA editing ligase – biochemical, fluorescence, Trypanosoma brucei, dose response (AID 1117295); assay type: functional
Sequence of RNA-editing ligase 1, mitochondrial (P86926 whole entry): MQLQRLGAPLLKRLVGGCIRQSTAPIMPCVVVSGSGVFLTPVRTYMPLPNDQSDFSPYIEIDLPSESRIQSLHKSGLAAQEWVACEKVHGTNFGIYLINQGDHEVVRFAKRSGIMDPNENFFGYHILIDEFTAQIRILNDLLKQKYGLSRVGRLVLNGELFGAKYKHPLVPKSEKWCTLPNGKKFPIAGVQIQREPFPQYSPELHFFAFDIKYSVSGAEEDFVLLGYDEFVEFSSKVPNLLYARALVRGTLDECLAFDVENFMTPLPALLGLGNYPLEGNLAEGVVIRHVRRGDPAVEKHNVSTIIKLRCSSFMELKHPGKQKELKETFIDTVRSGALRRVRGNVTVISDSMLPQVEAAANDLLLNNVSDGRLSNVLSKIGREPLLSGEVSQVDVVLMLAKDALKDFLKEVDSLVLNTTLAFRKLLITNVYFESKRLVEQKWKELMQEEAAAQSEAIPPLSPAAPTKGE

[23] = HPDE-C7 pancreatic duct cell viability loss – fluorescence, HTS (AID 430); assay type: functional, cell-based; conditions: Homo sapiens
[24] = viability loss of HPDE-C7K cells – cell-based, fluorescence, HTS, primary screen (AID 431); assay type: functional; conditions: Homo sapiens
NADPH oxidase 1 = target: T2, NADPH oxidase 1 (Homo sapiens, UniProt Q9Y5S8); assay type: functional, cell-based;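 further: Cell-based assay with luminescence read-out, IC50 derived from inhibitor dose-response curves; intracellular ROS from endogenous NOX1 in intact HT29 colon cancer cells; potency of inhibitors that lower the ROS luminescence signal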
T2 sequence (Q9Y5S8 whole entry): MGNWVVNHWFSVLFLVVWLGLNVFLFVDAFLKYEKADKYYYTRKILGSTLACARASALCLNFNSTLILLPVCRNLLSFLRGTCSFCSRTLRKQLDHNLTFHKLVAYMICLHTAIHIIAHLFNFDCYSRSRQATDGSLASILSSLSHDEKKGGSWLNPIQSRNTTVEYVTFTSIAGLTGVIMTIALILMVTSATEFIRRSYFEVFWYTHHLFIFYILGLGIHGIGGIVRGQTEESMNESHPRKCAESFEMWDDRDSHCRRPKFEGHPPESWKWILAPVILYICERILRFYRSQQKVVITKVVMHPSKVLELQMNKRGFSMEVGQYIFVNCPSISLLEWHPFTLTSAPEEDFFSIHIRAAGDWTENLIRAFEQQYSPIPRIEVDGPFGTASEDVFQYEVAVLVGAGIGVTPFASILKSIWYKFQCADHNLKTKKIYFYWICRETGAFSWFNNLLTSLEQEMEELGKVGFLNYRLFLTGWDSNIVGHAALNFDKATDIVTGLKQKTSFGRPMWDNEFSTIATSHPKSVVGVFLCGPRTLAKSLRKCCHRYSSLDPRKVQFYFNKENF

Bcl-2-related protein A1 = target: T3, Bcl-2-related protein A1 (Mus musculus, UniProt Q07440); assay type: functional;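 further: confirmatory dose–response counterscreen on Bfl-1, used to check hits from a UBC13 polyubiquitin inhibitor campaign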
T3 sequence (Q07440 whole entry): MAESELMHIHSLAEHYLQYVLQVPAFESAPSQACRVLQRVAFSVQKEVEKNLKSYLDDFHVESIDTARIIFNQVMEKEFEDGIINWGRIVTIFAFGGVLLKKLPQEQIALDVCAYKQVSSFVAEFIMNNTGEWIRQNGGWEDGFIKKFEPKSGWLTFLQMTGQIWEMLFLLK

[25] = target: T4, Ubiquitin-conjugating enzyme E2 N (Homo sapiens, UniProt P61088); assay type: functional
T4 sequence (P61088 whole entry): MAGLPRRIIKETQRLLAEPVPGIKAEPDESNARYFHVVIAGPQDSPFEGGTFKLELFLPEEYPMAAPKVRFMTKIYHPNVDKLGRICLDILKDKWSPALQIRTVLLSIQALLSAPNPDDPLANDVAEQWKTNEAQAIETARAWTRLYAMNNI

[26] = target: T4, Ubiquitin-conjugating enzyme E2 N; assay type: functional; remark: listed apart in the source
[27] = glucagon-like peptide-1 release potency in STC-1, concentration-response, half-maximal inhibitory concentration in the STC-1 line (AID 1117345); assay type: functional, cell-based
[28] = Potency on glucagon-like peptide 1 release, dose-response in NCI-H716 cell line, half maximal inhibitory concentration (AID 1117344); assay type: functional, cell-based
[29] = system: Streptococcus sp. 'group A'; assay: Streptococcus pyogenes SK(-)GAS viability under kanamycin – luminescence, BacTiterGlo, confirmation, counter-screen for streptokinase expression inhibitor project, dose response (AID 1900); assay type: functional, organism-based
Streptokinase A = target: T5, Streptokinase A (Streptococcus pyogenes serotype M1, UniProt P10520); assay: viability-normalized secreted streptokinase activity reduction – plasminogen activation absorbance, OD405, dose response (AID 1914); assay type: functional, Streptococcus pyogenes M1 GAS;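 further: secreted streptokinase activity via plasminogen activation per viability signal from cell pellet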
T5 sequence (P10520 whole entry): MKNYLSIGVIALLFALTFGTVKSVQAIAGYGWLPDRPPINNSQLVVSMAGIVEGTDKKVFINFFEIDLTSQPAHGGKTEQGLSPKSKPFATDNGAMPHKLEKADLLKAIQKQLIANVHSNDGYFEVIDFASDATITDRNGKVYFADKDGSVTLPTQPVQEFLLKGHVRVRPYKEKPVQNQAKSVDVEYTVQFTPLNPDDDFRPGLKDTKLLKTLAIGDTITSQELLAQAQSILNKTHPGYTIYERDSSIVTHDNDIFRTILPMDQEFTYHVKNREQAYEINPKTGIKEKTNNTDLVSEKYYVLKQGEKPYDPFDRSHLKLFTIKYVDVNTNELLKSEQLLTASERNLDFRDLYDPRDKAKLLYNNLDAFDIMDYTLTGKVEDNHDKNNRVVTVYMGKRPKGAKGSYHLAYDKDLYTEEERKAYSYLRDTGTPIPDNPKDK

Streptococcus = assay: GAS UMAA2166 growth inhibition – luminescence, BacTiterGlo, counter-screen for streptokinase expression inhibitor project, dose response (AID 1915); assay type: functional, organism-based;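 further: potency for reduction of bacterial viability or growth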
[30] = THP-1 cell cytotoxicity, dose response, cytotoxicity control for non-replicating M. tuberculosis project (AID 489025); assay type: functional
[31] = Vero E6 cell cytotoxicity, dose response, cytotoxicity control for non-replicating M. tuberculosis project, secondary assay (AID 492998); assay type: functional, VeroE6; conditions: Vero C1008
cells [32] = assay type: functional
INS1 = assay: INS-1E survival protection against cytokine death – cell-based, luminescence, retest, dose response (AID 449756); assay type: functional; conditions: Rattus norvegicus;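 further: cell death triggered by IL-1 beta plus TNF-alpha plus IFN-gamma mixture; protective hits raise ATP signal compared with cytokine alone wells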
[33] = IC50 of Artemis nuclease activity blockers – biochemical, fluorescence intensity, dose response (AID 720701); assay type: functional;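 further: Artemis endonuclease enzyme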
[34] = activation of miR-122 Renilla sensor silencing – cell-based, Huh7 psiCHECK-miR122, Renilla luciferase, cherry-picked, dose response (AID 651956); assay type: functional;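 further: huh7 hepatoma cells stably carrying a psiCHECK-2 miR-122 sensor plasmid; renilla luciferase signal reporting endogenous miR-122 activity after 48 h compound exposure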
[35] = general mammalian cell viability loss – activator set, cherry-pick, cytotoxicity control for miR-122 modulator project, dose response (AID 720690); assay type: functional, cell-based;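 further: HEK293T human cells scored for general mammalian cytotoxicity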

Structure (SMILES): COc1ccccc1C#Cc1ccc([C@@H]2[C@@H](C#N)N(C(=O)C3CCCCC3)[C@H]2CO)cc1
- AC50 (Paired box protein Pax-8): 6.05 µM (active)
- AC50 [1]: 31.9 µM (active)
- AC50 [2]: 24.2 µM (active)
- AC50 [3]: > 70 µM (inactive)
- AC50 [4]: 0.689 µM (active)
- AC50 [5]: 21.8 µM (active)
- AC50 [6]: 1.37 µM (active)
- AC50 [7]: 0.562 µM (active)
- AC50 [8]: > 39 µM (inactive)
- AC50 [9]: 1.14 µM (active)

Structure (SMILES): CC(C)c1ccc(C=NNc2ccc([N+](=O)[O-])cn2)cc1
- EC50 [10]: > 67.6 µM (inactive)
- EC50 (cells [11]): > 67.6 µM (inactive)

Structure (SMILES): c1cc2c(cc1C1=NN=C(NC3CC3)SC1)OCCO2
- IC50 [12]: > 80 µM (inactive)
- AC50 (Paired box protein Pax-8): 2.14 µM (active)
- AC50 [13]: 5.39 µM (active)
- AC50 [14]: 6.46 µM (active)
- AC50 [15]: 0.276 µM (active)
- AC50 [16]: 7.92 µM (active)
- AC50 [17]: 0.251 µM (active)
- AC50 [18]: 4.07 µM (active)

Structure (SMILES): Cc1ccc(S(=O)(=O)N(C)C[C@@H]2Oc3ccc(NS(=O)(=O)c4c(C)noc4C)cc3CC(=O)N([C@H](C)CO)C[C@@H]2C)cc1
- AC50 [19]: 23.2 µM (active)
- AC50 [20]: 5.38 µM (active)
- AC50 [21]: 11.4 µM (active)

Structure (SMILES): COC(=O)C1=C(C)N(Cc2ccccc2C(F)(F)F)C(NCc2ccc(C(F)(F)F)cc2)=NC1c1ccc(C(F)(F)F)cc1 (configuration not stated)
- IC50 [22]: > 96.6 µM (inactive)

Structure (SMILES): OCCN1CCN(CCCN2c3ccccc3Sc3ccc(Cl)cc32)CC1 [PERPHENAZINE]
- EC50 [23]: 10.4 µM (active)
- EC50 [24]: 10.5 µM (active)
- IC50 (NADPH oxidase 1): > 17 µM (not active)
- IC50 (Bcl-2-related protein A1): > 20 µM (inactive)
- IC50 [25]: 13.4 µM (active)
- IC50 [26]: 16.2 µM (active)
- IC50 [27]: 15.5 µM (inactive)
- IC50 [28]: 7.37 µM (inactive)

Structure (SMILES): Cc1cc(C)n(-c2nc(NCCCO)c3c4c(sc3n2)CCCC4)n1
- EC50 [29]: 25.9 µM (active)
- EC50 (Streptokinase A): > 150 µM (not active)
- EC50 (Streptococcus): > 150 µM (not active)
- CC50 [30]: 38.6 µM (active)
- CC50 [31]: > 20 µM (active)
- IC50 (cells [32]): 5.54 µM (active)
- AC50 (INS1): 5.71 µM (active)
- IC50 [33]: 17.9 µM (active)

Structure (SMILES): C[C@@H]1CN([C@@H](C)CO)C(=O)Cc2cc(NC(=O)C3CCCCC3)ccc2O[C@H]1CN(C)Cc1ccc(-c2ccccc2)cc1
- AC50 [34]: 14.3 µM (active)
- AC50 [35]: 16.8 µM (active)
